Measured values reported in patent publication US9789200B2, “Therapeutic use of new pharmaceutical preparations containing antitumoral drugs bound to hyaluronic acid in the treatment of neoplasias” (FIDIA FARMACEUTICI S.P.A., priority 2008, dated 2017).
In brackets after ≈: the same amount, converted by molar mass.

Key:
[1] = test system: DHD/K12/Trb peritoneal carcinomatosis; assay: anti-tumoral effect in vivo, peritoneal carcinomatosis and tumoral ascites induced by DHD/K12/Trb in BDIX rats; design: species or system rat; details: 40 mg/kg intraperitoneally
Protocol: Animals treated: 36 male rats BDIX 7 weeks' old (about 200 g) were divided according to experimental criteria into the following groups (each group consists of 12 animals):
1. Control Group: inoculum DHD/K12/trb.
2. CPT-11 Group: inoculum DHD/K12/trb+treatment CTP-11 40 mg/Kg intraperitoneally.
After 14 days of stabling, 1×10^6 DHD/K12/trb cells per rat were inoculated intraperitoneally. After 7 days the therapeutic treatment envisaged was initiated, consisting of 4 therapy cycles. The sacrifice of the animals was established 7 days after the last pharmacological treatment. The animals were evaluated once a week for the appearance of possible signs of toxicity, by measuring the body weight, and for the possible appearance of ascites. At the moment of sacrifice an intracardiac sampling was effected in all the animals and the haematological toxicity due to the pharmacological treatment was evaluated. The tumours and ascites were removed and measured. The tissues removed were fixed in formalin for histological and immunohistochemical evaluation.

[2] = test system: Adenocarcinoma cells of the colon of a rat DHD/K12/Trb; assay: cell vitality, Tripan blue exclusion method; type: cell-based; details: 24 h of treatment, ONCOFID-S derivatized at 3.5% w/w (Example 2)
From the text: Adenocarcinoma cells of the colon of a rat DHD/K12/Trb expressing the receptor for HA CD44
Adenocarcinoma cells of the colon of a rat DHD/K12/Trb.

[3] = test system: Adenocarcinoma cells of the colon of a rat DHD/K12/Trb; assay: cytofluorometric analysis of cell phases (DNA content, propidium iodide) and wash out test; type: cell-based; details: 0.5 μg/ml, 24 h of treatment; ONCOFID-S 3.5% w/w
Protocol: Adenocarcinoma cells of the colon of a rat DHD/K12/Trb
As described for examples 8 and 9.
The effect of the ONCOFID-S conjugate (at a concentration of 0.5 μg/ml) was determined using an analysis of the cytofluorometric type; after 24 h of pharmacological treatment, the cell phases are identified with FACS-Scan (Becton Dickinson) by cytofluorometric, analysis of the DNA content after colouring the cells with propidium iodide.
In order to evaluate whether the data obtained persist with time, the Wash out test was effected in which, after 48 h of treatment, the culture medium is substituted with fresh medium without treatment: the cell phases were then defined again at the point defined as TO and, after 24 h of culture, T24.

[4] = test system: DHD/Trb cells; assay: fluorescence microscopy of intracellular distribution/expression of E-cadherin, β-catenin, APC, GSK-3β and CK20; type: cell-based, rat; details: non-conjugated SN38
From the text: Due to the importance of the role of regulating the β-catenin in the formation and progression of colon-rectal carcinomas, it was verified whether the treatment with Oncofid-S is capable of modifying the intracellular expression and distribution of the molecules involved in the control process of the above protein, as previously described. The effect of the treatment with ONCOFID-S on the intracellular distribution of E-cadherin, β-catenin, APC e GSK-3β in the DHD/Trb cells was therefore analyzed by means of fluorescence microscopy. Specific antibodies were used for the above proteins, visualizing them with the use of secondary antibodies bound to fluorochromes such as rodamin and fluoroescein.

Row | IC50 [2] | SMILES | animals with bloody ascites [1] | average reduction in the tumoral mass ([1]; vs control) | gap1 and S phases of the cell cycle [3] | modifications relating to cell differentiation (APC/GSK-3β, β-catenin, E-cadherin, CK20) [4]
1 |  | CCc1c2c(nc3ccc(OC(=O)N4CCC(N5CCCCC5)CC4)cc13)-c1cc3c(c(=O)n1C2)COC(=O)[C@]3(O)CC [CPT-11, Irinotecan] | 83% | 62% |  | 
2 | 1.4 µg/mL (≈ 3.57 µM) | CCc1c2c(nc3ccc(O)cc13)-c1cc3c(c(=O)n1C2)COC(=O)[C@]3(O)CC [SN38] |  |  | increases both the first phase and the S phase | not revealed
